Consider eight molecules from ChEMBL document CHEMBL4622898, “Synthesis, in vitro ADME profiling and in vivo pharmacological evaluation of novel glycogen phosphorylase inhibitors” (Bioorg Med Chem Lett, 2020).

Series [1] has as its system Mus musculus. The experiment in a line: Hypoglycemic activity in adrenaline-induced diabetic mouse assessed as fasted plasma glucose level at 200 mg/kg, po measured after 30 min (reference value: 9.58 +/- 0.44). In kind it is functional.
In series [2] the test system is Mus musculus. In words: Hypoglycemic activity in adrenaline-induced diabetic mouse assessed as fasted plasma glucose level at 200 mg/kg, po measured immediately (reference value: 4.84 +/- 0.15). In kind it is functional.
Series [3] relates to Mus musculus. In words: Hypoglycemic activity in adrenaline-induced diabetic mouse assessed as glucose AUC at 200 mg/kg, po measured up to 90 min (reference value: 482.63 +/- 21.01 mg/dL.min). In kind it is functional, organism-based. Further details: dose 200 mg/kg, time < 1.5 hr.
For series [4], the system named is Mus musculus. The experiment in a line: Hypoglycemic activity in adrenaline-induced diabetic mouse assessed as fasted plasma glucose level at 200 mg/kg, po measured after 60 min (reference value: 8.41 +/- 0.48). Type of series: functional.
Series [5] deals with Mus musculus. In words: Hypoglycemic activity in adrenaline-induced diabetic mouse assessed as fasted plasma glucose level at 200 mg/kg, po measured after 90 min (reference value: 7.56 +/- 0.49). Type of series: functional.
Series [6] in a line: Stability of compound in simulated gastric fluid assessed as compound degradation measured up to 24 hrs relative to control. In kind it is physicochemical. As to conditions: read-out: Drug degradation.
Series [7] can be described thus: Stability of compound in mouse plasma assessed as compound degradation measured up to 0.5 hrs. In kind it is ADME, cell-free.
A short description of series [8]: Clearance in mouse liver microsomes. In kind it is ADME, Microsome. In general terms: Liver microsomes are a subcellular fraction often used to study metabolism.
A short description of series [9]: Inhibition of rabbit muscle Glycogen phosphorylase measured phosphate release from glucose-1-phosphate. The arrangement: species or system Oryctolagus cuniculus.
Series [10] in a line: Stability of compound in simulated intestinal fluid assessed as compound degradation measured up to 1 hr. Type of series: physicochemical. As to conditions: simulated gi fluid.
Series [11] can be described thus: Half life in mouse liver microsomes. Type of series: ADME, Microsome.
Series [12] can be described thus: Intrinsic clearance in mouse liver microsomes. In kind it is ADME, Microsome.
A further series concerns HepG2. The experiment in a line: Inhibition of glycogenolysis in human HepG2 cells assessed as GCN-stimulated glycogen breakdown after 5 mins. The settings on record: HepG2, 5 min. In kind it is functional, cell-based.
The nature of the next series: physchem. The settings on record: buffer, pH 7.4.
Another series deals with Hepatocyte. The experiment in a line: Inhibition of glycogenolysis in rat hepatocytes assessed as GCN-stimulated glycogen breakdown after 5 mins. Type of series: functional, cell-based.
Series [13] can be described thus: Lipophilicity, log D of the compound in 1-Octanol-phosphate buffer at pH 7.4. Type of series: physicochemical.
Series [14] is described as follows: Stability of compound in simulated gastric fluid assessed as compound degradation measured up to 24 hrs. The settings on record: simulated gi fluid. Type of series: physicochemical.
A short description of series [15]: Stability of compound in mouse plasma assessed as compound degradation measured up to 24 hrs. Type of series: ADME, cell-free.
A short description of series [16]: Inhibition of recombinant human liver glycogen phosphorylase a expressed in baculovirus-infected Sf9 cells using glucose-1-phosphate as substrate in presence of 7.5 mM glucose.
The nature of series [17]: Aqueous solubility of compound. As to conditions: buffer. In kind it is physicochemical.
Series [18] relates to Mus musculus. In words: Hypoglycemic activity in adrenaline-induced diabetic mouse assessed as glucose AUC at 50 mg/kg, po measured up to 90 min (reference value: 482.63 +/- 21.01 mg/dL.min). Type of series: functional, organism-based. The arrangement: time < 1.5 hr, dose 50 mg/kg.
Series [19] deals with Mus musculus. The experiment in a line: Hypoglycemic activity in adrenaline-induced diabetic mouse assessed as fasted plasma glucose level at 25 mg/kg, po measured after 90 min (reference value: 7.56 +/- 0.49). Type of series: functional.
For series [20], the system named is Mus musculus. In words: Hypoglycemic activity in adrenaline-induced diabetic mouse assessed as fasted plasma glucose level at 25 mg/kg, po measured after 60 min (reference value: 8.41 +/- 0.48). Type of series: functional.
The species entered for series [21] is Mus musculus. In words: Hypoglycemic activity in adrenaline-induced diabetic mouse assessed as blood glucose level measured at 1.5 hrs (reference value: 486.15 +/- 22.65 mg/dl). In kind it is functional.
Series [22] deals with Mus musculus. In words: Hypoglycemic activity in adrenaline-induced diabetic mouse assessed as fasted plasma glucose level at 12.5 mg/kg, po measured after 30 min (reference value: 9.58 +/- 0.44). In kind it is functional.
Series [23] deals with Mus musculus. The experiment in a line: Hypoglycemic activity in adrenaline-induced diabetic mouse assessed as fasted plasma glucose level at 50 mg/kg, po measured immediately (reference value: 4.84 +/- 0.15). In kind it is functional.
Series [24] relates to Mus musculus. In words: Hypoglycemic activity in adrenaline-induced diabetic mouse assessed as glucose AUC at 12.5 mg/kg, po measured up to 90 min (reference value: 482.63 +/- 21.01 mg/dL.min). Further details: time < 1.5 hr, dose 12.5 mg/kg. Type of series: functional, organism-based.
Series [25] relates to Mus musculus. The experiment in a line: Hypoglycemic activity in adrenaline-induced diabetic mouse assessed as fasted plasma glucose level at 50 mg/kg, po measured after 90 min (reference value: 7.56 +/- 0.49). In kind it is functional.
Series [26] has as its system Mus musculus. The experiment in a line: Hypoglycemic activity in adrenaline-induced diabetic mouse assessed as fasted plasma glucose level at 12.5 mg/kg, po measured immediately (reference value: 4.84 +/- 0.15). In kind it is functional.
A short description of series [27]: Stability of compound in simulated intestinal fluid assessed as compound degradation measured up to 6 hrs. Type of series: physicochemical. The settings on record: simulated gi fluid.
Series [28] deals with Mus musculus. The experiment in a line: Hypoglycemic activity in adrenaline-induced diabetic mouse assessed as glucose AUC at 25 mg/kg, po measured up to 90 min (reference value: 482.63 +/- 21.01 mg/dL.min). Type of series: functional, organism-based. Further details: dose 25 mg/kg, time < 1.5 hr.
In series [29] the test system is Mus musculus. The experiment in a line: Hypoglycemic activity in adrenaline-induced diabetic mouse assessed as fasted plasma glucose level at 50 mg/kg, po measured after 30 min (reference value: 9.58 +/- 0.44). In kind it is functional.
The subject of series [30] is Mus musculus. The experiment in a line: Hypoglycemic activity in adrenaline-induced diabetic fasted mouse assessed as reduction in plasma glucose level at 12.5 to 50 mg/kg, po. In kind it is functional, organism-based.
Series [31] concerns Mus musculus. The experiment in a line: Hypoglycemic activity in adrenaline-induced diabetic mouse assessed as fasted plasma glucose level at 50 mg/kg, po measured after 60 min (reference value: 8.41 +/- 0.48). Type of series: functional.
The subject of series [32] is Mus musculus. The experiment in a line: Hypoglycemic activity in adrenaline-induced diabetic mouse assessed as fasted plasma glucose level at 25 mg/kg, po measured after 30 min (reference value: 9.58 +/- 0.44). In kind it is functional.
Series [33] has as its system Mus musculus. The experiment in a line: Hypoglycemic activity in adrenaline-induced diabetic mouse assessed as fasted plasma glucose level at 12.5 mg/kg, po measured after 90 min (reference value: 7.56 +/- 0.49). In kind it is functional.
Series [34] deals with Mus musculus. The experiment in a line: Hypoglycemic activity in adrenaline-induced diabetic mouse assessed as fasted plasma glucose level at 25 mg/kg, po measured immediately (reference value: 4.84 +/- 0.15). Type of series: functional.
Series [35] concerns Mus musculus. The experiment in a line: Hypoglycemic activity in adrenaline-induced diabetic mouse assessed as fasted plasma glucose level at 12.5 mg/kg, po measured after 60 min (reference value: 8.41 +/- 0.48). In kind it is functional.

In brackets after ≈: the same amount, converted by molar mass. Activity calls are given as the source filed them. The rule behind the calls is not given here. Where only a bound is given, the exact number is not on record here.

As usually defined, the CLint scaled is a measure of how fast metabolising enzymes remove a compound, apart from limits set by blood flow. In general, IC50 refers to the concentration that inhibits the measured activity by half. By half-life is commonly meant how long it takes for the measured level to halve. The term solubility (kinetic) denotes solubility judged after dilution from a stock solution rather than from solid. The term logD denotes the decadic logarithm of the distribution of all forms, ionised or not, between an organic phase and buffer at a given pH. One may read the solubility as the concentration that dissolves in the medium under given conditions. A higher solubility goes with much dissolved substance.

Description for physchem: Kinetic solubility of compound at pH 7.4 by high-throughput kinetic solubility assay

Take `CN(C)C(=N)NC(=N)N` [METFORMIN]: the plasma glucose in the series on Mus musculus [1] is 8.85 mM; with Mus musculus [4] it was 5.79 mM. The OD in the series on Mus musculus [2] is on record as 4.76; in the series on Mus musculus [5], 5. Further, the AUC in the series with Mus musculus [3] stood at 374 mg/dL×min.
In the case of `COC(=O)CNC(=O)[C@H](Cc1ccccc1)NC(=O)c1cc2cc(Cl)ccc2[nH]1`, the degraded at 24 h in series [6] was 50%. For the same molecule, the Stability entry in series [7] and in [10] was “Unstable” in each case. The same molecule showed an intrinsic metabolic clearance (CLint scaled) in series [8] of 356 mL/min/kg. Also, the half-maximal inhibitory concentration (IC50) was 0.0487 µM in series [9], 0.661 µM with HepG2 and 0.72 µM in the series on Hepatocyte. This molecule also had a half-life in [11] of 15.4 min. Further, the CLint in [12] is 90 µL/min/mg. In the series “physchem”, this molecule registered a solubility (kinetic) of 1.89 µM (≈ 0.782 µg/mL). The same molecule came in with a pH-dependent lipophilicity (logD) in series [13] of 3.95.
For the molecule `NC(=O)[C@@H](Cc1ccccc1)NC(=O)CNC(=O)c1cc2cc(Cl)ccc2[nH]1`, the Stability result in [14] is reported as “Stable”; in series [10], “Unstable”; in series [15] it was “Stable”. Also, in series [8], the CLint scaled was < 38 mL/min/kg. Further, the half-maximal inhibitory concentration (IC50) came out at 0.555 µM in series [9], 6.47 µM in the series with HepG2 and 7.65 µM in the series on Hepatocyte. Moreover, the half-life in series [11] is > 145 min. Besides, in series [12], the CLint is < 9.6 µL/min/mg. This molecule also displayed a solubility (kinetic) in “physchem” of 36.8 µM (≈ 14.7 µg/mL). The logD in series [13] worked out at 3.32.
With `CN(C)C(=O)[C@H](O)[C@H](Cc1ccccc1)NC(=O)c1cc2cc(Cl)ccc2[nH]1`, the half-inhibitory concentration (IC50) is 0.11 µM in series [16], 0.0922 µM in [9], 3.31 µM in the series on HepG2 and 3.17 µM with Hepatocyte. The solubility in series [17] is < 1000 µg/mL.
As to `O=C(O)CNC(=O)[C@H](Cc1ccccc1)NC(=O)c1cc2cc(Cl)ccc2[nH]1`, the AUC in the series with Mus musculus [18] was 416 mg/dL×min; in the series with Mus musculus [24], 449 mg/dL×min; in the series with Mus musculus [28], 451 mg/dL×min. In addition, the plasma glucose worked out at 6.7 mM in the series with Mus musculus [19]; 7.62 mM in the series on Mus musculus [20]; 8.92 mM in the series on Mus musculus [22]; 6.05 mM with Mus musculus [25]; 9.03 mM in the series on Mus musculus [29]; 6.83 mM with Mus musculus [31]. For the same molecule, the plasma glucose was determined as 9.52 mM in the series on Mus musculus [32], 7.47 mM in the series on Mus musculus [33] and 7.4 mM in the series on Mus musculus [35]. For the same molecule, the Stability result in [14] was “Stable”; in [27], “Unstable”; in series [10], “Stable”; in series [15], “Stable”. Further, in [8], the intrinsic metabolic clearance (CLint scaled) was < 38 mL/min/kg. Besides, the Activity in the series listed under Mus musculus [21] was 446.25 mg/dL. Also, the OD in the series on Mus musculus [23] was found to be 4.86; in the series on Mus musculus [26], 4.89; with Mus musculus [34], 4.85. Besides, the IC50 came to 0.289 µM in series [9], 3.24 µM in the series on HepG2 and 7.15 µM in the series with Hepatocyte. In addition, the half-life in series [11] is > 145 min. In addition, the CLint in [12] is < 9.6 µL/min/mg. The outcome in the series with Mus musculus [30] was Active. In addition, the solubility (kinetic) in the series “physchem” amounted to 188 µM (≈ 75.1 µg/mL). Besides, the logD in [13] was 0.72.
The molecule `CN(C)CCCN1c2ccccc2Sc2ccc(Cl)cc21` [CHLORPROMAZINE] gave a log distribution coefficient (logD) in series [13] of 3.23.
In the case of `O=C(N[C@@H](Cc1ccc(O)cc1)c1nc2ccccc2[nH]1)c1cc2cc(Cl)ccc2[nH]1`, the IC50 was 0.578 µM in series [9], 8.39 µM in the series with HepG2 and 9.46 µM in the series with Hepatocyte.
On to `O=C(O)Cc1ccccc1Nc1c(Cl)cccc1Cl` [DICLOFENAC], for which the intrinsic metabolic clearance (CLint scaled) in series [8] is 203 mL/min/kg. The same molecule came in with a half-life in series [11] of 27.1 min. Further, in [12], the CLint came to 51.2 µL/min/mg.
